Publication PMC9396645 (Frontiers in Chemistry, 2022)

Tests used:
C4-2 cells = assay: Internalization efficiency / specific cell uptake in C4-2 cells; type: cell-based, human; settings: ^68Ga-labeled compounds 30 nM, 45 min, 37°C, specificity by 2-PMPA 500 μM, mean ± SD (n = 3)
Method: The specific internalization ratio was determinated in 24-well plates. The plates were previously coated with 0.1% poly-L-lysine in PBS for 20 min and washed with PBS once. C4-2 cells (10^5 cells per analysis) were added to each well and equilibrated overnight. The cells were incubated for 45 min with 250 µL of a 30 nM solution of the ^68Ga-labeled compounds either in a water bath at 37°C or on ice. The PSMA-receptor-blocking agent 2-(phosphonomethyl)pentanedioic acid (2-PMPA; 500 μM; Axxora) was used to verify the specificity of the cellular uptake of the novel compounds. The cells were washed thrice (using 1 ml of ice-cold PBS), followed by an incubation with 0.5 ml of a glycine solution (50 mM in HCl at a pH of 2.8) for 5 min, washed once with 1 ml of ice-cold PBS, and finally lysed with 0.5 ml of 0.3 M NaOH. The lysate was collected, and the radioactivity was measured in a gamma-counter. Triplicate measurements were performed for all experiments.

[1] = system: C4-2 tumor bearing BALB/c nu/nu mice; assay: Biodistribution (organ distribution) in C4-2 tumor-bearing mice; type: in vivo, mouse
From the text: (§1) Athymic male nude mice (BALB/c nu/nu) were purchased from Charles River at 4‒5 weeks of age (19–23 g). The mice were kept under pathogen-free conditions for 1 week prior to the study. The mice had free access to water and food and were housed with a 12-h/12-h light/dark cycle. The xenografts required for positron emission tomography (PET) imaging and biodistribution studies were obtained by inoculation of 5 × 10^7 C4-2 cells in 50% Matrigel in Opti-MEM I (1 ×) medium. For this purpose, the mice were anesthetized with 2% sevoflurane, and inoculation was performed subcutaneously on the right trunk. When the size of the tumor was approximately 1 cm^3, the studies were performed.
Based on the results of the PET imaging, ^68Ga-CA028 and ^68Ga-CA030, the most promising compounds, were chosen for biodistribution studies in C4-2 tumor-bearing mice. The labeled compound (0.05 nmol, 20 MBq) was administered to the mice via tail vein injection. Animals were sacrificed and organs were harvested at the following time points: 20 min, 1, 2, and 4 h p.i. The organs were dissected and weighed, the activity was measured with a γ-counter, and the % ID/g was calculated.

[2] = system: C4-2 tumor bearing BALB/c nu/nu mice; assay: Small-animal PET imaging in C4-2 tumor bearing mice; type: in vivo, mouse; settings: for mSUV Bladder / mSUV Heart / mSUV Kidneys / mSUV Liver / mSUV Muscle / mSUV Tumor: small-animal PET, C4-2 xenograft mouse
From the text: as §1
For small-animal PET imaging, the different ^68Ga-labeled PSMA ligands (0.5 nmol, 20 MBq in approximately 100 µL 0.9% saline) were injected into C4-2 tumor bearing mice. The dynamic PET was recorded in a small animal PET scanner (Siemens Inveon D-PET). The standardized uptake values (SUVs) were obtained from conventional (non-dynamic) PET images. The formula for the SUV was SUV=activity in ROI (Bq/ml) × animal weight (g)/injected dose(Bq)
Manual delineation of the respective appropriate whole organ (heart, kidneys, bladder, tumor, with an approximate volume of 100–500 µL) yielded the volumes of interest (VOIs). For this purpose, whole organs or parts of the organ/tissue (liver and muscle) were used. The images were reconstructed based on the procedure: OSEM 3D/SP MAP with 16 subsets, two iterations, and an image x-y size: 256, image z size: 161. The data were not modified with a post-processing filter. Analysis of the images and time-activity curves (TACs) was conducted on the Inveon™ Acquisition Workplace (IAW) from Siemens IRW 4.1. […] […] The mean SUVs were plotted over time in order to compare the different radiotracers.

prostate cancer patients = assay: PSMA-PET/CT of prostate cancer patients; type: in vivo, human; settings: patient PET/CT, 20 nmol
Method: Diagnostic PSMA-PET/computed tomography (CT) examinations were performed 1 and 3 h after antecubital injection of 339 MBq/20 nmol ^68Ga-CA028 or 295 MBq/20 nmol ^68Ga-CA030 per patient, respectively. The method for assessing the biodistribution was performed as previously described by Afshar-Oromieh et al. ([Afshar-Oromieh et al., 2015b]). Applying the clinical standard software Syngo (Siemens), which was used to define the VOIs in the PET images, the activity distributions of the source organs was determined. This reference ([Afshar-Oromieh et al., 2015b]) was also used as a standard of reference for ^68Ga-PSMA-617 (Table 3).

tumor uptake ([1]; C4-2 tumor, 20 min after injection, 0.05 nmol, 20 MBq): 12.53 ± 0.45 %ID/g
tumor uptake with blockade ([1]; C4-2 tumor, 1 h p.i., co-injection of non-labeled PSMA-617 2 mg/kg): 1.31 ± 0.34 %ID/g
kidney uptake ([1]; kidneys, 1 h p.i., 0.05 nmol, 20 MBq): 15.58 ± 2.79 %ID/g
kidney uptake with blockade ([1]; kidneys, 1 h p.i., co-injection of non-labeled PSMA-617 2 mg/kg): 2.37 ± 0.52 %ID/g
mSUV Bladder ([2]; 1 h): 6.50
mSUV Heart ([2]; 1 h): 0.36
mSUV Kidneys ([2]; 1 h): 0.39
mSUV Liver ([2]; 1 h): 0.22
mSUV Muscle ([2]; 1 h): 0.13
mSUV Tumor ([2]; 1 h): 0.81
mSUV Bladder ([2]; 2 h): 2.5
mSUV Heart ([2]; 2 h): 0.13
mSUV Kidneys ([2]; 2 h): 0.29
mSUV Liver ([2]; 2 h): 0.09
mSUV Muscle ([2]; 2 h): 0.05
mSUV Tumor ([2]; 2 h): 0.78
tumor-to-kidney ratio ([2]; mean SUV from PET, 2 h p.i.): 2.69
SUV mean Bone metastasis (prostate cancer patients; first listed bone metastasis, 1 h p.i.): 4.5
SUV mean Bone metastasis (prostate cancer patients; first listed bone metastasis, 3 h p.i.): 4.1
SUV mean Lymph node (prostate cancer patients; first listed lymph node, 1 h p.i.): 13.5
SUV mean Lymph node (prostate cancer patients; first listed lymph node, 3 h p.i.): 10.7
SUV mean Blood pool, mediastinal (prostate cancer patients; 1 h p.i.): 3.2
SUV mean Colon (prostate cancer patients; 1 h p.i.): 4.9
SUV mean Gluteal muscle (prostate cancer patients; 1 h p.i.): 0.7
SUV mean Kidneys (prostate cancer patients; 1 h p.i.): 13.8
SUV mean Lacrimal gland (prostate cancer patients; 1 h p.i.): 7.4
SUV mean Liver (prostate cancer patients; 1 h p.i.): 4.3
SUV mean Lung metastasis (prostate cancer patients; 1 h p.i.): 5.7
SUV mean Nasal mucosa (prostate cancer patients; 1 h p.i.): 2.9
SUV mean Parotid gland (prostate cancer patients; 1 h p.i.): 11.0
SUV mean Proximal small intestine (prostate cancer patients; 1 h p.i.): 8.4
SUV mean Spleen (prostate cancer patients; 1 h p.i.): 5.1
SUV mean Sublingual gland (prostate cancer patients; 1 h p.i.): 3.8
SUV mean Submandibular gland (prostate cancer patients; 1 h p.i.): 14.4
SUV mean Blood pool, mediastinal (prostate cancer patients; 3 h p.i.): 2.9
SUV mean Colon (prostate cancer patients; 3 h p.i.): 4.2
SUV mean Gluteal muscle (prostate cancer patients; 3 h p.i.): 0.4
SUV mean Kidneys (prostate cancer patients; 3 h p.i.): 10.9
SUV mean Lacrimal gland (prostate cancer patients; 3 h p.i.): 7.6
SUV mean Liver (prostate cancer patients; 3 h p.i.): 1.8
SUV mean Lung metastasis (prostate cancer patients; 3 h p.i.): 4.7
SUV mean Nasal mucosa (prostate cancer patients; 3 h p.i.): 3.5
SUV mean Parotid gland (prostate cancer patients; 3 h p.i.): 8.0
SUV mean Proximal small intestine (prostate cancer patients; 3 h p.i.): 10.4
SUV mean Spleen (prostate cancer patients; 3 h p.i.): 2.5
SUV mean Sublingual gland (prostate cancer patients; 3 h p.i.): 2.8
SUV mean Submandibular gland (prostate cancer patients; 3 h p.i.): 8.9
SUV mean Bone metastasis (prostate cancer patients; second listed bone metastasis, 1 h p.i.): 6.9
SUV mean Bone metastasis (prostate cancer patients; second listed bone metastasis, 3 h p.i.): 5.7
SUV mean Lymph node (prostate cancer patients; second listed lymph node, 1 h p.i.): 17.0
SUV mean Lymph node (prostate cancer patients; second listed lymph node, 3 h p.i.): 25.4
SUV mean Bone metastasis (prostate cancer patients; third listed bone metastasis, 1 h p.i.): 4.6
SUV mean Bone metastasis (prostate cancer patients; third listed bone metastasis, 3 h p.i.): 4.4
SUV mean Lymph node (prostate cancer patients; third listed lymph node, 1 h p.i.): 5.0
SUV mean Lymph node (prostate cancer patients; third listed lymph node, 3 h p.i.): 4.1
Compound: O=C([O-])CN1CCN(CC(=O)[O-])CCN(Cc2ccc(C(=O)NCC3CCC(C(=O)NC(Cc4ccc5ccccc5c4)C(=O)NCCCCC(NC(=O)NC(CCC(=O)O)C(=O)O)C(=O)O)CC3)cc2)CCN(CC(=O)[O-])CC1.[68Ga+3] (stereo not drawn) [^68Ga-CA028]
Specific lysate (internalization) (C4-2 cells): 41.2 ± 2.7 %IA/10^6 cells
tumor-to-kidney ratio ([2]; mean SUV body weight from dynamic PET, 1 h p.i.): 2.08
